Assay results taken from patent US20220064238A1, “Methods And Compositions For Modifying Transcription Factor Activity by Targeting The Human Mediator Complex Using Cell Penetrating Memetic Peptides And Methods of Treating Cancer Using The Same” (The Regents of the University of Colorado, a body corporate, priority 2020, published 2022).
Bridge positions count the residues as written; N and C are the ends. Square brackets hold non-standard residues; d marks the D form. Peptide text beside a SMILES is read from it. PEG6 = NCCOCCOCCOCCOCCOCCOCCC(=O)O; R8 = C=CCCCCCC[C@@](C)(N)C(=O)O; S5 = C=CCCC[C@](C)(N)C(=O)O

Columns and labels:
[1] = system: p53-target genes in HCT116 cells; test: RT-qPCR of p53 target genes in HCT116 cells; format: cell-based, human; details: HCT116, 3-hour Nutlin treatment
Protocol: Experimental time frame for RNA-Seq experiments: In a series of experiments in SJSA cells, we initially tested whether the bivalent peptide could cause a phenotypic change. […] We next determined that a 6-hour Nutlin treatment time was the shortest that would still trigger significant SJSA cell death within 24-48 hours. However, we obtained similar results with 6-hour (or 12-hour) Nutlin treatment times (±bivalent peptide). We then tested the prospect of RNA-Seq experiments, in hopes that gene expression changes and shorter time frames would allow an assessment of bivalent peptide effects. Here, we used HCT116 cells, which show strong transcriptional response to Nutlin (Allen et al., 2014). For RNA-Seq experiments, we needed a time frame long enough to allow accumulation of p53 target gene mRNAs but short enough to enable maximum activity of the bivalent peptide (e.g. prior to its secretion, export, and/or degradation). Using RT-qPCR assays, we confirmed that a 3-hour Nutlin treatment was a minimum amount of time to reliably detect induction of p53 target genes. […] RNA-Seq data have been uploaded on GEO: GSE135870.

HCT116 cells = test: RNA-Seq in HCT116 cells, non-p53 genes / genome-wide transcription; format: cell-based, human; details: DMSO control cells, no Nutlin
Source text: An expectation of our experimental strategy was that the bivalent peptide, which was designed based upon p53AD structure, would selectively block p53 function. […] RNA-Seq experiments in HCT116 cells represented a more rigorous test for selectivity. HCT116 cells express hundreds of sequence-specific, DNA-binding TFs, including high level expression of TFs that define the cell lineage. For HCT116 cells, these TFs include SREBF1, ELF3, JUNB, NR2F1, and MYC. To assess the general impact of the bivalent peptide on pol II transcription, we compared RNA-Seq data from DMSO control cells (i.e. no Nutlin treatment) in the presence/absence of bivalent peptide.
Electroporation of bivalent peptide into HCT116 cells (RNA-Seq experiment 1): Two 6-well plates (HCT116 cells) were grown to about 80% confluency. Cells were then trypsinized, washed with PBS, and resuspended in 150 μL Neon Buffer R. The cells were then split into two groups: No peptide and 10 μM peptide. The cells were then drawn into a 10 μL Neon pipet tip, electroporated and ejected into 2 mL of McCoy's 5A media without antibiotic. For each experiment, two cell electroporation aliquots were added to media containing either 0.1% DMSO (control) or 10 μM Nutlin-3a (in DMSO, to a final concentration of 0.1%). […]

[2] = system: pol II occupancy at the p21 locus; test: ChIP of RNA polymerase II occupancy at CDKN1A (p21); format: cell-based; details: 3 h post-Nutlin, Ser5-phosphorylated pol II ChIP
Source text: FIGS. 13A-B. Summary of ChIP experiments, showing that RNA polymerase II occupancy at the p53 target gene CDKN1A (p21) is reduced in cells treated with the bivalent peptide (peptide). A) Time course following Nutlin induction, to determine ideal time point to probe pol II occupancy at the p21 locus. […] However, pol II occupancy is reduced in cells treated with the bivalent peptide. […] Pol II phosphorylated at serine-5 of its C-terminal domain was used for ChIP analysis, because this is a proxy for initiating pol II at gene promoters (start sites). Data represent biological triplicates. Similar results were observed genome-wide, using ChIP-seq, although the timing of induction across p53 target genes will vary (data not shown).

## CC[C@H](C)[C@H](NC(=O)[C@H](CC(=O)O)NC(=O)[C@H](CC(=O)O)NC(=O)[C@@H]1CCCN1C(=O)[C@H](CO)NC(=O)[C@H](CC(C)C)NC(=O)CCOCCOCCOCCOCCOCCOCCNC(=O)[C@H](CCCNC(=N)N)NC(=O)[C@H](CCCNC(=N)N)NC(=O)[C@]1(C)CCCC=CCCCCCC[C@@](C)(NC(=O)[C@H](Cc2ccccc2)NC(=O)[C@H](CCCNC(=N)N)NC(=O)[C@H](CCC(=O)O)NC(=O)[C@H](CCC(N)=O)NC(=O)[C@H](CO)NC(=O)[C@H](CCCNC(=N)N)NC(C)=O)C(=O)N[C@@H](CC(=O)O)C(=O)N[C@@H](CC(C)C)C(=O)N[C@@H](Cc2c[nH]c3ccccc23)C(=O)N[C@@H](CCCCN)C(=O)N[C@@H](CCCNC(=N)N)C(=O)N[C@@H](CC(C)C)C(=O)N1)C(=O)N[C@@H](CCC(=O)O)C(=O)N[C@@H](CCC(N)=O)C(=O)N[C@@H](Cc1c[nH]c2ccccc12)C(=O)N[C@@H](Cc1ccccc1)C(=O)N[C@H](C(=O)N[C@@H](CCC(=O)O)C(=O)N[C@@H](CC(=O)O)C(N)=O)[C@@H](C)O [bivalent peptide] (Ac-RSQERF[R8]DLWKRL[S5]RR[PEG6]LSPDDIEQWFTED-NH2; staple 7-14; N-terminus assumed)
[1]
  activation of p53-target genes by RT-qPCR: blocking activation of p53-target genes
HCT116 cells
  effect on pol II transcription genome-wide: minor effect on pol II transcription
[2]
  pol II occupancy at the p21 locus in peptide-treated cells: reduced
